Consider one molecule from patent publication US6589564B2, “Use of magnesium based products for the treatment of neoplastic diseases” (priority 1994, dated 2003).

Where two headings read alike, the source gives them in different places.

Assay [1] has as its system infiltrating ulcerated adenocarcinoma (rectum). The method, then: The patient refused any therapy for a month and then started a magnesium treatment consisting of a daily administration of 500 cm^3 of physiologic solution, containing 6 g of magnesium pyrophosphate (i.e., 489 mg of Mg^++ daily, that is equivalent to about 9.7 mg of Mg^++/kg body weight daily). The infusion rate was adjusted to supply the patient with 80 mg of magnesium ions per hour for about 6 hours. Furthermore, a daily amount of 1200 mg of vitamin B6 was associated (vitamin B6:Mg^++=2.5:1), in four separate administrations.
After one month of intravenous treatment, the therapy was continued orally, with 6 g of magnesium pyrophosphate daily (i.e., 488 mg of Mg^++ daily, corresponding to 9.7 mg of Mg^++/kg body weight daily), associated with […] of vitamin B6 in divided doses.

A further assay relates to rheumatoid arthritis. The settings on record: for ESR: before therapy 55, normal range 1-15. The method, then:
The magnesium therapy, that the patient started in a disease remission interval, consisted of daily administations of 6 g of magnesium pyrophosphate (equivalent to 489 mg of Mg^++, corresponding to 8.1 mg of Mg^++/kg body weight daily), by infusion in 500 cm^3 of physiologic solution. The infusion rate was adjusted to supply 80 mg of Mg^++ per hour for about 6 hours. Vitamin B6 was associated with magnesium in the 2.5:1 ratio, i.e. in an amount of 1200 mg daily in divided doses, in order to improve the magnesium uptake. Suitable analgesic and anti-inflammatory drugs (FANS) were prescribed to soothe the articulation pains
At this point the parenteral treatment was suspended and an oral therapy started with following dosage: 6 g of magnesium pyrophosphate daily in divided doses (i.e., 488 mg of Mg^++ daily, corresponding to 8.1 mg of Mg^++/kg body weight daily), as well as […] of vitamin B6 orally, also in divided doses.

The subject of the next assay is pemphigus vulgaris. As to the method:
A patient was affected since three years by a pemphigus vulgaris, that caused soft vesicles to form on the patient's face and scalp. The vesicles broke after forming, and gave rise to circular erosions, that later were covered by scabs. Then, the said lesions appeared also on the patient's trunk and oral mucosa.
The therapy consisted in daily administering 9 g of magnesium pyrophosphate (i.e., 733 mg of Mg^++, corresponding to 9.16 mg/kg body weight daily of magnesium ions), dissolved into 500 cm^3 of a physiologic solution. The infusion rate was adjusted to supply 80 mg of Mg^++ per hour for about 9 hours.
Moreover, 1800 mg of vitamin B6 were administered daily, in divided doses.

The test system of another assay is ulcerative colitis. As to the method: The treatment comprised the parenteral administration of 6 g of magnesium pyrophosphate (489 mg of Mg^++, i.e., 8.89 mg of Mg^++/kg body weight daily), diluted into 500 cm^3 of physiologic solution, and the infusion was adjusted to supply the patient with 80 mg of Mg^++ per hour for 6 hours. […] of orally administered vitamin B6 were added in divided doses, to improve the magnesium uptake.

The mark [2] stands for this setting: end of fourth month, negative normally, before therapy positive.
The mark [3] stands for this setting: after one further month (three months).

On to `O=P([O-])([O-])OP(=O)([O-])[O-].[Mg+2].[Mg+2]` [magnesium pyrophosphate], for which, in assay [1] (end of fifth month of treatment), the “tumor area at rectoscopy and tomography” value was “totally disappeared”. Besides, in assay [1] (end of fourth month of therapy), the tumor area entry was “further reduced”. For the same molecule, the “diameter of residual tumor area” value in assay [1] (end of third month of magnesium therapy, point at 3 o'clock) amounted to 1.5 cm. In assay [1] (end of third month, 6 g/day, 1 month i.v. then oral, with vitamin B6 1200 mg/day), the “tumoral tissue at rectum investigation and rectoscopy” value was “had disappeared from the whole rectum circumference, except from a point at 3 o'clock”. The same molecule yielded an ESR in the assay on rheumatoid arthritis (end of first month, 6 g/day by infusion with vitamin B6) of 42. Also, in the assay on rheumatoid arthritis (end of first month, 6 g/day by infusion with vitamin B6 and FANS), the “articulation pains and swelling” value is reported as “less pains at affected articulations, which appeared less swollen”. Besides, in the assay with rheumatoid arthritis (end of fourth month of treatment (1 month i.v., then oral 6 g/day)), the “articulation tumescence, pains, morning rigidity” value was “any articulation tumescence had disappeared and the patient referred neither articulation pains nor morning articulation rigidity”. Besides, in the assay on rheumatoid arthritis (setting [2]), the ANA antibody research result is “negative” and the “Waaler-Rose's reaction” value is recorded as “negative”. Moreover, the “reactive C protein” value with rheumatoid arthritis (end of fourth month, normal range 0-6, before therapy 15) is reported as 2. This molecule showed a rheuma test with rheumatoid arthritis (end of fourth month, normal range 0-40, before therapy 105) of 21. The ESR in the assay with rheumatoid arthritis (end of fourth month) is 10. Moreover, the fibrinogen in the assay with rheumatoid arthritis (end of fourth month, normal range 123-370, before therapy 550) was 232. For the same molecule, the “articular pains and cutaneous lesions” value in the assay with pemphigus vulgaris (after one month, 9 g/day by infusion with vitamin B6) was “less articular pains and cutaneous lesions onto non-erythematous skin”. Also, the “scab lesions and articulation pains” value in the assay with pemphigus vulgaris (end of fourth month (1 month i.v., then oral 9 g/day with vitamin B6)) is “the trunk and limb scab lesions had disappeared, while scarce lesions were still present on the scalp”. In addition, the “articulation pains and skin lesions” value in the assay on pemphigus vulgaris (end of sixth month of treatment) is reported as “the articulation pains had disappeared at all, as well as any skin lesions”. In the assay with ulcerative colitis (setting [3]), the “colonscopy, last 50 cm of the colon mucosa” value is listed as “appeared normal”; the “histology test of colon mucosa and submucosa” value is “colon mucosa and submucosa were normal and any inflammatory infiltration had disappeared”. In addition, in the assay on ulcerative colitis (after one further month (three months), same dosage), the “abdominal pains and diarrhoea” value is “no more abdominal pains nor diarrhoea”. Further, in the assay with ulcerative colitis (end of two month treatment), the “colonscopy, last 50 cm of the colon mucosa” value was “neither hyperaemic nor bleeding; and absence of microulcerative lesions”; the “diarrhoea, daily episodes” value is listed as “two”; the “histology test of colon mucosa” value is reported as “still showed the presence of inflammatory neutrophil infiltration in the colon mucosa”. In the assay with ulcerative colitis (end of two month treatment, 6 g/day parenteral with oral vitamin B6), the abdominal pains entry is listed as “no abdominal pains”.
